Test results reported in patent publication EP3763226A1, “COMPOSITION FOR REDUCING HAIR LOSS AND IMPROVING HAIR GROWTH IN CASES OF ANDROGENETIC ALOPECIA” (Merz Pharma GmbH & Co. KGaA, priority 2019, dated 2021).

Columns and labels:
5-α-Reduktase Typ I = target: T1, 5-α-Reduktase Typ I (Homo sapiens, UniProt P18405); test: Cell-free in vitro 5α-reductase type I inhibition assay (HEK I cell homogenate, androstenedione conversion, LC-HRMS); format: biochemical; details: concentration giving 50% inhibition; Abbildung 1; read-out: IC50-Wert für die 5 alpha Reduktase vom Typ I
T1 construct: expressed in transfected cells; host or cells: HEK293 (HEK I), stably transfected; gift of Prof; R. W. Hartmann, Saarland University; particulate fraction of the cell homogenate used
T1 sequence (P18405 1-259): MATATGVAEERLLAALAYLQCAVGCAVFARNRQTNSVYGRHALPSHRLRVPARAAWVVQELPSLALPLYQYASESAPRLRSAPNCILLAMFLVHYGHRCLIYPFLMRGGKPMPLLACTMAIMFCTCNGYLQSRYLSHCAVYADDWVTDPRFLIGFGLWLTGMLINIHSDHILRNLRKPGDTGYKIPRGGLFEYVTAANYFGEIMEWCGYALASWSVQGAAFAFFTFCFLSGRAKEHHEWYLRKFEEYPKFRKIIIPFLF
Procedure: (§1) Die HEK I Zellen exprimieren rekombinante 5 alpha Reduktase vom Typ I, während die HEK II Zellen rekombinante 5 alpha Reduktase vom Typ II exprimieren.
(§2) HEK I und HEK II Zellen wurden in DMEM (Dulbecco's modified eagle medium, ccpro GmbH) (pH 7.4) mit 10 % FCS (Fetal calf serum, PAN), Penicillin/Streptomycin (100 U/ml und 100 µg/ml) und 0.5 mg/ml Geneticin-418-sulfat in einer befeuchteten 5 % CO2 Atmosphäre bei 37°C kultiviert.
(§3) Herstellung der 5-α-Reduktase Typ I und II enthaltenen Zellfraktionen: Für den Zell-freien in vitro assays wurden HEK I oder HEK II geerntet, durch Zentrifugation (500 x g) vom Zellkulturmedium befreit und re-suspended in einem Homogenisierungs-Puffer bestehend aus 50 mM Tris-HCI (pH 7.4), 300 mM Saccharose, 0.1 mM EDTA, 10 mM DTT and 100 µM PMSF. Durch Einfrieren bei - 196 °C und Auftauen auf Eis, wurden die Zellen solubilisiert. Nach einer Inkubations-Zeitraum von 30 min bei 4°C mit 1 mg/ml DNAse in 50 mM MgCl2 und zwischenzeitlich kräftigen Schütteln, wurde das erhaltene Homogenisat bei 20,200 x g in einer gekühlten Zentrifuge für 50 min bei 4°C zentrifugiert. Das Pellet wurde im Homogenisierungs-Puffer re-suspendiert und wieder bei 20,200 x g für 30 Minuten bei at 4°C zentrifugiert. Diese Prozedur wurde zweimal wiederholt. […] Der Protein-Gehalt wurde gemäß der BCA-Methode mit dem kommerziell erhältlichen BCA-Protein Assay Kit von Pierce quantifiziert. […]

5-α-Reduktase Typ II = target: T2, 5-α-Reduktase Typ II (Homo sapiens, UniProt P31213); test: Cell-free in vitro 5α-reductase type II inhibition assay (HEK II cell homogenate, androstenedione conversion, LC-HRMS); format: biochemical
T2 sequence (P31213 1-254): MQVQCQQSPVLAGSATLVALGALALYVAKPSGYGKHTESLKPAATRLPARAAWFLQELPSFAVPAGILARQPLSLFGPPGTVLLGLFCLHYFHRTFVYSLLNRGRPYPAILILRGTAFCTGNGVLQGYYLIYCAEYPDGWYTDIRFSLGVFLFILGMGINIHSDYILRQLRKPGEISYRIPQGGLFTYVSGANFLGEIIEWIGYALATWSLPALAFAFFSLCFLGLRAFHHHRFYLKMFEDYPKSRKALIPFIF
Procedure: as §1, §2, §3

[1] = system: ex-vivo Kultur von Haarfollikeln; details: ex vivo culture of hair follicles; cited from earlier work

IC50 (5-α-Reduktase Typ I) | IC50 (5-α-Reduktase Typ II; concentration giving 50% inhibition, Abbildung 1, read-out: IC50-Wert für die 5 alpha Reduktase vom Typ II) | Wirkung auf die 5-alpha Reduktase vom Typ II stärker als auf Typ I (5-α-Reduktase Typ II; ratio of the concentrations for 50% inhibition, type I vs type II) | SMILES | Haarwachstum [1]
376 nM | 1.89 nM | ca. 200 fach | CC(C)(C)NC(=O)[C@H]1CC[C@H]2[C@@H]3CC[C@H]4NC(=O)C=C[C@]4(C)[C@H]3CC[C@]12C [Finasterid] | –
– | – | – | O=C(O[C@@H]1Cc2c(O)cc(O)cc2O[C@@H]1c1cc(O)c(O)c(O)c1)c1cc(O)c(O)c(O)c1 [Epigallocatechin-3-gallate] | stimuliert
